Test results from US20110136916A1, “6-SHOGAOL FOR USING IN A METHOD FOR THE TREATMENT OF LEUKEMIA” (China Pharmaceutical University, priority 2009, published 2011).
“Also recorded” adds a separate entry of the source. Like-named read-outs stand apart in the source and are kept apart here.

Assays:
[1] = system: colon carcinoma HCT15 cells; conditions: cited from earlier work
[2] = system: human leukemia Jurkat cells; test: Annexin V/PI flow cytometry apoptosis of Jurkat cells; assay type: cell-based; conditions: for Apoptotic rate: Jurkat
Procedure: Jurkat cells in logarithmic growth phase of growth were collected (3−10×10^5) and inoculated to a 24-well plate in 3×10^5 cells/mL/well, then after incubation for 24 hours, different concentrations of 6-shogaol (0, 1, 2.5, 5, 10 and 15 μM) were added for treatment for 24 hours and also 6-shogaol at a concentration of 15 μM were added for treatment at different durations (0, 2, 4, 6, 12 and 24 h). After reacting with 6-shogaol under different conditions, the cells were collected into 1 mL centrifuge tubes and then centrifuged at 500 rpm (or 100×g) for 5 minutes, the supernatant was removed and the cells were rinsed with 0.01 M PBS at 500 rpm (or 100×g) for 5 minutes twice, and the flow cytometry analysis (Becton Dickinson FACScan Flow Cytometer) was carried out after adding binding solution and staining according to the directions for use of Annexin V/PI double staining kit (BD Company). The FACS data were analyzed by professional operators of the flow cytometer by using FLOWJO software (Tree Star, Calif.) software, the apoptotic rate was counted by the sum of early apoptosis and late apoptosis, and the results were shown in Table 2 and Table 3.

[3] = system: pulmonary carcinoma A549 cells; conditions: 48 hours; read-out: IC50 for inhibiting the proliferation of A549 cells; cited from earlier work
[4] = system: human acute myelocytic leukemia cell U937; test: MTT anti-proliferation, U937; assay type: cell-based; conditions: for IC50: U937, MTT, n = 3; for growth inhibition (activities of cells vs control): U937, 1-20 μM
Procedure: Cells in logarithmic growth phase were collected and then inoculated in 1˜2×10^4 cells/well in a 96-well plate respectively according to the sizes of cells and whether they attached to the wall, the cells were centrifuged and the supernatant was removed after growing for 24 hours, and then drug administration was carried out according to the groups as below: the drug group and the drug free group were set up for tumor cells (the concentrations ranged from 1˜20 μM), 5 or 6 duplicates were set for each group and the cells were incubated for 24 or 72 hours. The supernatant was removed and 100 μl serum free culture solution containing 0.5 mg/ml MTT (tetrazolium) was added for further incubation for 4 hours, subsequently 100 μl DMSO (dimethyl sulfoxide) was added and the plate was kept on the micro-shaker for 10 minutes, and the OD value was determined on a micro-plate reader at the wavelength of 570 nm. Evaluations on the toxicity were carried out on normal human cell line LO-2 and each test was repeated for three times.

ddY line mice = conditions: cited from earlier work
[5] = system: peripheral blood lymphocytes (PBMC) of healthy volunteers; test: Annexin V/PI apoptosis of PBMC from healthy volunteers; assay type: cell-based, human; conditions: 24 hours
Procedure: After application by the research group and approval by the Ethics Committee of the hospital, the leukemia patients (healthy volunteers) signed the informed consent and their fresh blood was collected and transferred into heparin anticoagulation tubes, then the same volume of serum free D-Hank buffer (preheated at 37° C.) was added to re-suspend the cells, and the suspension was added to the pre-laid human lymphocyte separating medium (preheated at 37° C.), and the volume ratio between the lymphocyte separating medium and the cell suspension should be no lower than 1:1, and the mixture was centrifuged at room temperature (20-30° C.) at 500×g by a horizontal centrifuge for 30 minutes. The upper layer plasma was removed and the white fog layer in the middle was carefully collected and transferred to 5 mL (or 1-2 times of the volume) PBS (or serum free buffer for cell culture), then it was centrifuged at 200×g or 1000 rpm for 10 minutes at room temperature (20-30° C.), and the supernatant was removed, and the obtained precipitation was the peripheral blood lymphocytes (PBMC). The cells were rinsed twice according to the above-mentioned operations at 500×g by the horizontal centrifuge for 10 minutes at room temperature (20-30° C.), subsequently the cells were collected and their cell vitality was detected by using dye exclusion method for living cells (Trypan blue).
The cells were added to a 24-well plate in 3×10^5 cells/mL/well and different concentrations of 6-shogaol (10 and 20 μM) for treatment for 24 hours after they were incubated for 24 hours. Negative control group (the group without drug) and the treatment group with 6-shogaol were set up for PBMCs from different individuals respectively. After the cells were treated with 6-shogaol for 24 hours, they were transferred into 10 mL glass centrifuge tubes and centrifuged at 500 rpm (or 100×g) for 5 minutes to remove the supernatant. The cells were then rinsed with 0.01 M PBS at 500 rpm (or 100×g) for 5 minutes twice. Subsequently, after adding binding solution and staining according to the directions for use of Annexin V/PI double staining kit (BD Company), flow cytometry analysis (Becton Dickinson FACScan Flow Cytometer) was carried out. The FACS data were analyzed by professional operators of the flow cytometer by using FLOWJO software (Tree Star, Calif.) software, the apoptotic rate was counted by the sum of early apoptosis and late apoptosis, and the results were shown in Table 4 and Table 5.

[6] = system: human ovarian cancer SK-OV-3 cells; conditions: cited from earlier work
[7] = cited from earlier work

CCCCC/C=C/C(=O)CCc1ccc(O)c(OC)c1 [6-shogaol]
anti-tumor activities [1]: certain anti-tumor activities | Apoptotic rate ([2]; 1 μM, 24 hours, n = 3): 11.2 ± 0.9bd % | Apoptotic rate ([2]; 2.5 μM, 24 hours, n = 3): 17.8 ± 1.4bd % | Apoptotic rate ([2]; 5 μM, 24 hours, n = 3): 25.9 ± 3.2bc % | Apoptotic rate ([2]; 10 μM, 24 hours, n = 3): 48.7 ± 3.1bd % | Apoptotic rate ([2]; 15 μM, 2 hours, n = 3): 7.7 ± 2.1% | Apoptotic rate ([2]; 15 μM, 4 hours, n = 3): 14.6 ± 2.5ac % | Apoptotic rate ([2]; 15 μM, 6 hours, n = 3): 28.5 ± 3.3bd % | Apoptotic rate ([2]; 15 μM, 12 hours, n = 3): 45.3 ± 2.6bd % | Apoptotic rate ([2]; 15 μM, 24 hours, n = 3 (Table 2)): 73.2 ± 2.8bd % | Apoptotic rate ([2]; 15 μM, 24 hours, n = 3 (Table 3)): 72.3 ± 2.4bd % | induction of apoptosis of Jurkat cells (t-test) ([2]; summary statement, concentration and time dependent): significantly induce the apoptosis | IC50 [3]: ~60 µM | IC50 ([4]; Homo sapiens, U-937, 24 h, 24 hours, read-out: Mean IC50 after 24 hours): < 10 µM | IC50 ([4]; Homo sapiens, U-937, 72 h, 72 hours, read-out: Mean IC50 after 72 hours): < 5 µM | growth inhibition (activities of cells vs control) ([4]; 24 hours, FIG. 4): significantly decreased | growth inhibition (activities of cells vs control) ([4]; 72 hours, FIG. 8): significantly decreased | IC50 ([4]; 24 hours, read-out: Mean IC50 after 24 hours): 7.63 ± 0.47 µM | IC50 ([4]; 72 hours, read-out: Mean IC50 after 72 hours): 4.93 ± 0.7 µM | LD50 (ddY line mice; intraperitoneal injection): about 109.2 mg/kg | LD50 (ddY line mice; intravenous injection): about 50.9 mg/kg | LD50 (ddY line mice; oral administration): 687 mg/kg | effect on apoptosis of PBMC of healthy volunteers (t-test) ([5]; 10 cases of healthy volunteers, 10 and 20 μM): no significant difference; also recorded: no significant effects | Apoptotic rate of 10 μM 6-shogaol ([5]; PBMC of healthy volunteer N1, 10 μM): 17.5 ± 0.8% | Apoptotic rate of 20 μM 6-shogaol ([5]; PBMC of healthy volunteer N1, 20 μM): 22.8 ± 0.6% | Apoptotic rate of 10 μM 6-shogaol ([5]; PBMC of healthy volunteer N2, 10 μM): 13.6 ± 0.9% | Apoptotic rate of 20 μM 6-shogaol ([5]; PBMC of healthy volunteer N2, 20 μM): 12.3 ± 1.4% | Apoptotic rate of 10 μM 6-shogaol ([5]; PBMC of healthy volunteer N3, 10 μM): 27.6 ± 2.4% | Apoptotic rate of 20 μM 6-shogaol ([5]; PBMC of healthy volunteer N3, 20 μM): 31.9 ± 1.7% | Apoptotic rate of 10 μM 6-shogaol ([5]; PBMC of healthy volunteer N4, 10 μM): 8.5 ± 0.8% | Apoptotic rate of 20 μM 6-shogaol ([5]; PBMC of healthy volunteer N4, 20 μM): 9.7 ± 1.2% | Apoptotic rate of 10 μM 6-shogaol ([5]; PBMC of healthy volunteer N5, 10 μM): 16.6 ± 4.8% | Apoptotic rate of 20 μM 6-shogaol ([5]; PBMC of healthy volunteer N5, 20 μM): 12.8 ± 3.6% | Apoptotic rate of 10 μM 6-shogaol ([5]; PBMC of healthy volunteer N6, 10 μM): 14.6 ± 0.9% | Apoptotic rate of 20 μM 6-shogaol ([5]; PBMC of healthy volunteer N6, 20 μM): 12.3 ± 1.4% | Apoptotic rate of 10 μM 6-shogaol ([5]; PBMC of healthy volunteer N7, 10 μM): 14.6 ± 1.4% | Apoptotic rate of 20 μM 6-shogaol ([5]; PBMC of healthy volunteer N7, 20 μM): 15.9 ± 0.7% | Apoptotic rate of 10 μM 6-shogaol ([5]; PBMC of healthy volunteer N8, 10 μM): 18.5 ± 1.8% | Apoptotic rate of 20 μM 6-shogaol ([5]; PBMC of healthy volunteer N8, 20 μM): 21.7 ± 1.6% | Apoptotic rate of 10 μM 6-shogaol ([5]; PBMC of healthy volunteer N9, 10 μM): 12.5 ± 2.9% | Apoptotic rate of 20 μM 6-shogaol ([5]; PBMC of healthy volunteer N9, 20 μM): 14.8 ± 0.9% | Apoptotic rate of 10 μM 6-shogaol ([5]; PBMC of healthy volunteer N10, 10 μM): 12.9 ± 1.3% | Apoptotic rate of 20 μM 6-shogaol ([5]; PBMC of healthy volunteer N10, 20 μM): 16.5 ± 0.7% | anti-tumor activities [6]: certain anti-tumor activities | solubility in ethanol ([7]; ethanol): soluble | solubility in water ([7]; water): insoluble
